{"source": "patent US7144862B2", "about": "“Orally administered peptides to ameliorate atherosclerosis” (The Regents of the University of California, priority 2000, dated 2006)", "key": {"[1]": {"tested_on": "red blood cells of LDL receptor deficient mice", "test": "In vitro red cell lysis after gavage of D peptides", "assay_type": "in vivo, mouse", "settings": "100 μg by gavage, blood 17 and 48 hrs later", "procedure": "Red cells were separated by centrifugation, were diluted to 10% hematocrit with PBS and incubated at 37° C. with gentle mixing. Aliquots were removed at time points t=0, 2, 6 and 18 hrs, cell pellets spun down and the optical density due to the released hemoglobin determined."}, "[2]": {"tested_on": "human artery wall cell cocultures", "test": "Lipoproteins from mice given peptide by gavage tested in human artery wall cell cocultures (monocyte chemotactic activity)", "method": "Groups of LDL receptor-deficient mice (n=3) were administered the D-peptides or the saline vehicle by gavage. […] Blood was collected from retroorbital sinus under mild anesthesia 17 hrs later. LDL was isolated from plasma by FPLC. Cocultures of artery wall cells were incubated with medium alone (NO ADDITION), control LDL from normal subjects (LDL), LDL plus control HDL from normal subjects (+HDL). […] The cocultures were incubated for 4 hrs at 37° C. in the presence of 10% LPDS. The supernatants were then discarded, the cocultures were washed and incubated with culture medium without serum or LPDS for an additional 4 hrs. This conditioned medium was collected and analyzed for monocyte chemotactic activity. The values are mean±SD of quadruplicate cocultures.\nBlood was collect after 6 hrs, plasma HDL and LDL were isolated by gel filtration (FPLC) and examined in the cocultures. […] Human LDL at 200 μg protein/ml was added to human artery wall cell cocultures together with human HDL (hHDL) at 350 μg protein/ml or mouse HDL (mHDL) at 100 μg cholesterol/ml taken from mice that received saline (Saline Rx) or L-4F (L-4F Rx) or D-4F (D-4F Rx) and monocyte chemotactic activity was determined as described herein. […] On the right, mouse LDL (mLDL) was isolated from mice receiving saline (Saline Rx) or L-4F (L4F Rx) or D-4F (D-4F Rx) and was added at 100 μg cholesterol/ml to the artery wall cell cocultures without HDL and monocyte chemotactic activity determined. Values are mean±SD) for four wells in two independent experiments.\nEither saline or 2F synthesized from D amino acids or from L amino acids was instilled in the stomachs of mice by gavage (instillation in the stomach by tube). After gavage the mice were bled and their LDL isolated and added to the human artery wall cell cocultures.\nThe animals were bled 1.5, 3 or 6 hours later and their HDL, LDL, and VLDL/IDL isolated.\nHuman aortic endothelial and smooth muscle cells were isolated and cultured as previously described (Id.). Cellular oxidation of LDL in the presence and absence of HDL was determined as described (Id.). Human blood monocytes were isolated after obtaining informed consent and monocyte chemotaxis was determined as described previously^5."}, "[3]": {"tested_on": "Human aortic wall cocultures", "test": "LDL plus peptide in vitro in human aortic wall cocultures, monocyte chemotactic activity (Example 2)", "assay_type": "cell-based", "settings": "control LDL 250 μg/ml plus varying amounts of peptide", "procedure": "Human aortic wall cocultures were incubated with medium alone (LDL, NO CELLS or CELLS, NO LDL, see FIG. 9), control LDL from normal subjects at 250 μg/ml (LDL) and LDL plus control HDL from normal subjects at 350 μg/ml (+HDL). Other cocultures were incubated With the control LDL together with varying amounts (micrograms shown on the abscissa) of either D-2F, or L-2F (third panel from the left, 2F) or D-37-pA or L-37pA (last panel on the right, 37pA). The data represent mean±SD of values obtained from quadruplicate cocultures."}, "[4]": {"test": "Antibody formation against D-2F (other studies)", "assay_type": "in vivo"}}, "note": "“Also recorded” adds a separate entry of the source. Non-standard residues stand in square brackets, D forms with d. Residues, ends and D or L forms follow the SMILES beside them."}
{"compound": "CC(=O)N[C@H](CC(=O)O)C(=O)N[C@H](Cc1c[nH]c2ccccc12)C(=O)N[C@H](CC(C)C)C(=O)N[C@H](CCCCN)C(=O)N[C@H](C)C(=O)N[C@H](Cc1ccccc1)C(=O)N[C@H](Cc1ccc(O)cc1)C(=O)N[C@H](CC(=O)O)C(=O)N[C@H](CCCCN)C(=O)N[C@@H](C(=O)N[C@H](C)C(=O)N[C@H](CCC(=O)O)C(=O)N[C@H](CCCCN)C(=O)N[C@H](CC(C)C)C(=O)N[C@H](CCCCN)C(=O)N[C@H](CCC(=O)O)C(=O)N[C@H](C)C(=O)N[C@H](Cc1ccccc1)C(N)=O)C(C)C", "note": "[Peptide D-2F, Ac-D-W-L-K-A-F-Y-D-K-V-A-E-K-L-K-E-A-F-NH2] (Ac-[dD][dW][dL][dK][dA][dF][dY][dD][dK][dV][dA][dE][dK][dL][dK][dE][dA][dF]-NH2)", "values": [{"measurement": "red cell lysis (hemolysis) after gavage", "setting": "[1]", "result": "resistant to hemolysis"}, {"measurement": "resistance of circulating mouse LDL to oxidation (monocyte chemotactic activity)", "setting": "[2]; 100 μg by gavage, LDL receptor-deficient mice, blood 17 hrs later", "result": "resistant to oxidation"}, {"measurement": "monocyte chemotaxis induced by LDL from mice given 2F by gavage", "setting": "[2]; D versus L form by gavage", "result": "reduced monocyte chemotaxis"}, {"measurement": "monocyte chemotactic activity induced by LDL treated with peptide in vitro", "setting": "[3]", "result": "significantly different from LDL; also recorded: equally able to block LDL oxidation and LDL-induced monocyte chemotactic activity"}, {"measurement": "antibody formation against the peptide", "setting": "[4]", "result": "not seen evidence of antibody formation"}]}
